The subject of data set [1] is platelet-rich plasma (PRP). Nature of the data set: Platelet aggregation inhibition test (ex vivo PRP after oral administration). In kind it is in vivo. The following applies: guinea pigs, blood one hour after administration; for Platelet aggregation inhibition rate (%) Collagen: collagen (2.5 µg/mg); for Platelet aggregation inhibition rate (%) Arachidonic acid: arachidonic acid (0.1 mM). The protocol: A test was conducted using male S1c:Hartley guinea pigs, which were 5 to 7 weeks old and had body weights of from 274 to 554 g, in groups each of which consisted of five guinea pigs. […] One hour after the administration, blood was collected from the abdominal aorta, and a platelet-rich plasma (PRP) was prepared. […]

Data set [2] can be described thus: Acute toxicity (single intravenous shot, approximate LD50). The following applies: mouse, in vivo, male S1C:ICR mice, single shot into caudal vein. The protocol:
A test was conducted using male S1C:ICR mice, which were 6 to 7 weeks old and had body weights of from 18 to 36 g, in groups each which consisted of 3 mice.
Predetermined amounts of compounds according to the present invention and a comparative drug (vinpocetine phosphate), each of which had been dissolved in a 5% aqueous solution of glucose, were administered as single shots into the caudal veins of the mice, and the mice were then observed to determine whether they remained under normal conditions or died. Upon expiration of an observation period, their approximate LD50 values were calculated by the provit method.

Data set [3] concerns superior mesenteric artery. Kind of data set: Vascular smooth muscle relaxing activity (potassium chloride-contracted helical artery preparation). The following applies: read-out: Vascular smooth muscle relaxing activity (ED50). Further details: species or system rabbit. The protocol:
Each rabbit was sacrificed under exsanguination, and an incision was then made in the flank thereof. […] After this preparation cut was caused to contract with potassium chloride to maintain it under predetermined tension, a given test compound was added cumulatively.

For the next data set, the system named is washed platelets. Nature of the data set: Platelet aggregation inhibiting activity (washed platelets, collagen, nephelometric analysis). In kind it is cell-based, normal volunteer. The conditions noted are these: Homo sapiens, read-out: Platelet aggregation inhibiting activity (IC50).
Data set [4] has as its system Vertebral blood flow and femoral blood flow. Nature of the data set: Blood flow enhancement test (anesthetized beagles, electromagnetic flow probe). In kind it is in vivo. The following applies: femoral vein administration. As to the method: A test was conducted using male beagles, which were 9 to 13 months old, had body weights of from 9 to 10 kg and had been anesthetized with pentobarbital sodium (25-30 mg/kg), in groups each of which consisted of four beagles. Into one of the femoral veins of each of the beagles, a given test compound in a form dissolved in a 5% agueous solution of glucose was administered at a dose of from 0.1 to 1.0 mg/kg. Vertebral blood flow and femoral blood flow were measured using an electromagnetic flow probe connected to a magnetic flow meter.

The mark [5] stands for this setting: Oryctolagus cuniculus, rabbit superior mesenteric artery contracted with potassium chloride, concentration for 50% relaxation.
Setting [6] is: washed platelets of a normal volunteer, aggregation by collagen.

The record followed here is patent EP0864571A1, “APOVINCAMINIC ACID DERIVATIVE AND MEDICINE CONTAINING THE SAME” (Hidaka, Hiroyoshi, priority 1995, dated 1997).

Like-named read-outs stand apart in the source and are kept apart here.

Procedure for washed platelets: Blood, which had been collected from a normal volunteer and had immediately been mixed with 1/10 volume of a 0.38% agueous solution of sodium citrate, was converted into a platelet-rich plasma (PRP) by centrifugation (700 x G, 10 minutes). To the PRP, 1/6 volume of the ACD solution (2.2% sodium citrate, 0.8% citric acid, 2.2% glucose - prepared before use) was added, followed by centrifugation (1,500 x G, 10 minutes). A platelet pellet so obtained was suspended in a modified HEPES Tyrode solution (135 mM sodium chloride, 2.7 mM potassium chloride, 1 mM magnesium chloride, 0.1 mg/mℓ glucose, 20 mM HEPE; pH 7.4). After 1/6 volume of the ACD solution was added to the suspension, further centrifugation was conducted (1,500 x G, 5 minutes). A platelet pellet so obtained was suspended in the modified HEPES Tyrode solution, whereby a washed platelet suspension containing about 300,000 platelets/µℓ therein was obtained.
Into 270-µℓ aliquots of the washed platelet suspension obtained above, 3-µℓ aliquots of solutions of a given test compound at varied concentrations in an appropriate solvent were added, respectively. The resulting mixtures were each preheated at 37°C for 2 minutes and, subsequent to the addition of 30 µℓ of a 20 µg/mℓ solution of collagen, an absorbance was measured by a 4-channel aggregometer ("HEMA Tracer 601"; manufactured by Nicoh Bioscience Co., Ltd.).
As a control, an absorption at the time of maximum aggregation by collagen in the presence of a solvent making use of a given test compound was assumed to be 100 whereas an absorbance before the addition of collagen was assumed to be 0. An inhibition rate (%) was then calculated from an absorbance at the time of maximum aggregation by collagen when the given test compound was added, and a concentration (µM) of the given test compound which achieves 50% inhibition was expressed as "IC50".

For the molecule `O=C1CCc2cc(OCCCCc3nnnn3C3CCCCC3)ccc2N1` [Cilostazol, reference compound], the “Platelet aggregation inhibition rate (%) Collagen” value in data set [1] (oral 100 mg/kg) is 12.4%. In addition, in data set [1] (oral 300 mg/kg), the “Platelet aggregation inhibition rate (%) Arachidonic acid” value turned out to be 22.1% and the “Platelet aggregation inhibition rate (%) Collagen” value came to 74.7%.
By LD50 is commonly meant the dose expected to kill half of the subjects tested. A high value points to lower toxicity. In the case of `CCOC(=O)C1=CC2(CC)CCCN3CCc4c(n1c1cc(NS(=O)(=O)c5ccccc5)ccc41)C32` (stereo not shown) [Compound 1, ethyl 11-phenylsulfonylamino-apovin-caminate], the LD50 in data set [2] came out at 85 mg/kg. Further, in data set [1] (oral 100 mg/kg), the “Platelet aggregation inhibition rate (%) Arachidonic acid” value is 45.2% and the “Platelet aggregation inhibition rate (%) Collagen” value is 85.4%.
As a reminder, the IC50 is the point on the concentration scale where inhibition reaches its midpoint. With `CCC12C=C(C(=O)OC)n3c4c(c5ccc(NS(=O)(=O)c6ccccc6)cc53)CCN(CCC1)C42` (stereo not shown) [Compound 2, Methyl 11-phenylsulfonylamino-apovincaminate], in data set [3] (setting [5]), the EC50 stood at 2100 nM. Moreover, in the data set with washed platelets (setting [6]), the IC50 was 380 nM.
Turning to `CCC12C=C(C(=O)OC)n3c4c(c5ccc(NS(=O)(=O)c6ccc(Cl)cc6)cc53)CCN(CCC1)C42` (stereo not shown) [Compound 3, Methyl 11-(4-chlorophenyl)sulfonylamino-apovincaminate], the EC50 in data set [3] (setting [5]) amounted to 1700 nM. Also, the IC50 with washed platelets (setting [6]) turned out to be 250 nM.
Regarding `CCOC(=O)C1=CC2(CC)CCCN3CCc4c(n1c1cc(NS(=O)(=O)c5ccc(Br)cc5)ccc41)C32` (stereo not shown) [Compound 4, Ethyl 11-(4-bromophenyl)sulfonylamino-apovincaminate], the EC50 in data set [3] (setting [5]) came to 1000 nM. For the same molecule, the 50% inhibitory concentration (IC50) in the data set on washed platelets (setting [6]) amounted to 760 nM.
In the case of `CCC12C=C(C(=O)OC(C)C)n3c4c(c5ccc(NS(=O)(=O)c6ccc(Cl)cc6)cc53)CCN(CCC1)C42` (stereo not shown) [Compound 5, Isopropyl 11-(4-chlorophenyl)sulfonylamino-apovincaminate], in data set [3] (setting [5]), the EC50 worked out at 1300 nM. The IC50 in the data set on washed platelets (setting [6]) amounted to 940 nM.
On to `CCCOC(=O)C1=CC2(CC)CCCN3CCc4c(n1c1cc(NS(=O)(=O)c5ccc(Cl)cc5)ccc41)C32` (stereo not shown) [Compound 6, Propyl 11-(4-chlorophenyl)sulfonylamino-apovincaminate], for which the EC50 in data set [3] (setting [5]) stood at 1300 nM. Moreover, the IC50 in the data set on washed platelets (setting [6]) is 960 nM.
For the molecule `CCOC(=O)C1=CC2(CC)CCCN3CCc4c(n1c1cc(NS(=O)(=O)c5ccc(F)cc5)ccc41)C32` (stereo not shown) [Compound 7, Ethyl 11-(4-fluorophenyl)sulfonylamino-apovincaminate], in data set [3] (setting [5]), the EC50 came out at 2000 nM. For the same molecule, the IC50 in the data set on washed platelets (setting [6]) came out at 910 nM.
Turning to `CCOC(=O)C1=CC2(CC)CCCN3CCc4c(n1c1cc(NS(=O)(=O)c5ccc(I)cc5)ccc41)C32` (stereo not shown) [Compound 8, Ethyl 11-(4-iodophenyl)sulfonylamino-apovincaminate], the EC50 in data set [3] (setting [5]) came to 1300 nM. The IC50 with washed platelets (setting [6]) amounted to 810 nM.
In the case of `CCOC(=O)C1=CC2(CC)CCCN3CCc4c(n1c1cc(NS(=O)(=O)c5cc(Cl)ccc5Cl)ccc41)C32` (stereo not shown) [Compound 9, Ethyl 11-(2,5-dichlorophenyl)sulfonylamino-apovincaminate], the EC50 in data set [3] (setting [5]) was 900 nM. For the same molecule, the IC50 in the data set with washed platelets (setting [6]) worked out at 880 nM.
Consider `CCOC(=O)C1=CC2(CC)CCCN3CCc4c(n1c1cc(NS(=O)(=O)c5cccc6ccccc56)ccc41)C32` (stereo not shown) [Compound 10, Ethyl 11-(1-naphthalene)sulfonylamino-apovincaminate], for which, in data set [3] (setting [5]), the EC50 came to 2000 nM. For the same molecule, in the data set on washed platelets (setting [6]), the IC50 was determined as 9200 nM.
Regarding `CCOC(=O)C1=CC2(CC)CCCN3CCc4c(n1c1cc(NS(=O)(=O)c5ccc(C)cc5)ccc41)C32` (stereo not shown) [Compound 11, Ethyl 11-(4-toluene)sulfonylamino-apovincaminate], the 50% lethal dose (LD50) in data set [2] was found to be 125 mg/kg. The EC50 in data set [3] (Oryctolagus cuniculus) amounted to 1000 nM. The IC50 in the data set with washed platelets amounted to 50 nM. For the same molecule, the “Bloodflow increment (%) Femoral artery” value in data set [4] (dose 0.1 mg/kg) is recorded as 2.9%; in data set [4] (dose 0.3 mg/kg) it was 5.1%; in data set [4] (dose 1.0 mg/kg), 4.5%. Moreover, the “Bloodflow increment (%) Vertebral artery” value in data set [4] (dose 0.1 mg/kg) was determined as 5.4%; in data set [4] (dose 0.3 mg/kg), 11.8%; in data set [4] (dose 1.0 mg/kg), 32.5%. In data set [1] (oral 100 mg/kg), the “Platelet aggregation inhibition rate (%) Arachidonic acid” value stood at 33.9%. In addition, the “Platelet aggregation inhibition rate (%) Collagen” value in data set [1] (oral 100 mg/kg) was 49.1%.
`CCOC(=O)C1=CC2(CC)CCCN3CCc4c(n1c1cc(NS(=O)(=O)c5c(C)cc(C)cc5C)ccc41)C32` (stereo not shown) [Compound 12, Ethyl 11-mesytylenesulfonylamino-apovincaminate] returned an LD50 in data set [2] of 50 mg/kg. In addition, the “Platelet aggregation inhibition rate (%) Collagen” value in data set [1] (oral 100 mg/kg) turned out to be 13.0%.
Turning to `CCOC(=O)C1=CC2(CC)CCCN3CCc4c(n1c1cc(NS(=O)(=O)Cc5ccccc5)ccc41)C32` (stereo not shown) [Compound 13, Ethyl 11-benzylsulfonylamino-apovincaminate], the EC50 in data set [3] (setting [5]) worked out at 300 nM. In addition, the 50% inhibitory concentration (IC50) in the data set on washed platelets (setting [6]) was determined as 4400 nM.
The matching figures for `CCOC(=O)C1=CC2(CC)CCCN3CCc4c(n1c1cc(NS(=O)(=O)c5ccc(NC(C)=O)cc5)ccc41)C32` (stereo not shown) [Compound 14, Ethyl 11-(4-acetylaminophenyl)sulfonyl-amino-apovincaminate]: 1200 nM and 470 nM.
For `CCOC(=O)C1=CC2(CC)CCCN3CCc4c(n1c1cc(NS(=O)(=O)c5cccc6cccnc56)ccc41)C32` (stereo not shown) [Compound 15, Ethyl 11-(8-quinoline)sulfonylamino-apovincaminate], in that order: 500 nM and 4100 nM.
The matching figures for `CCOC(=O)C1=CC2(CC)CCCN3CCc4c(n1c1cc(NS(=O)(=O)c5ccc(OC)cc5)ccc41)C32` (stereo not shown) [Compound 16, Ethyl 11-(4-methoxyphenyl) sulfonylamino-apovincaminate]: 700 nM and 1000 nM.
Consider `CCOC(=O)C1=CC2(CC)CCCN3CCc4c(n1c1cc(NS(=O)(=O)c5cc(C)ccc5C)ccc41)C32` (stereo not shown) [Compound 17, Ethyl 11-(2,5-dimethylphenyl)sulfonyl-amino-apovincaminate], for which, in data set [3] (setting [5]), the EC50 was 710 nM. The concentration for half-maximal inhibition (IC50) in the data set with washed platelets (setting [6]) was 720 nM.
The matching figures for `CCOC(=O)C1=CC2(CC)CCCN3CCc4c(n1c1cc(NS(=O)(=O)c5cccs5)ccc41)C32` (stereo not shown) [Compound 18, Ethyl 11-(2-thiophene)sulfonylamino-apovincaminate]: 630 nM and 400 nM.
The matching figures for `CCOC(=O)C1=CC2(CC)CCCN3CCc4c(n1c1cc(NS(=O)(=O)c5ccccc5C(=O)OC)ccc41)C32` (stereo not shown) [Compound 19, Ethyl 11-(2-methoxycarbonylphenyl)sulfonylamino-apovincaminate]: 200 nM and 1800 nM.
For `CCOC(=O)C1=C[C@]2(CC)CCCN3CCc4c(n1c1cc(NS(=O)(=O)c5c(C(C)C)cc(C(C)C)cc5C(C)C)ccc41)[C@@H]32` [Compound 20, Ethyl 11-(2,4,6-triisopropylphenyl)sulfonylamino-apovincaminate], the EC50 in data set [3] (rabbit superior mesenteric artery contracted with potassium chloride, concentration for 50% relaxation) worked out at 930 nM.
Take `CCOC(=O)C1=CC2(CC)CCCN3CCc4c(n1c1cc(NS(=O)(=O)c5ccc(OC)cc5[N+](=O)[O-])ccc41)C32` (stereo not shown) [Compound 21, Ethyl 11-(4-methoxy-2-nitrophenyl)sulfonylamino-apovincaminate]: the EC50 in data set [3] (setting [5]) turned out to be 2100 nM. In addition, in the data set with washed platelets (setting [6]), the 50% inhibitory concentration (IC50) is 400 nM.
The matching figures for `CCOC(=O)C1=CC2(CC)CCCN3CCc4c(n1c1cc(NS(=O)(=O)c5ccc6ccccc6c5)ccc41)C32` (stereo not shown) [Compound 22, Ethyl 11-(2-naphthalene)sulfonylamino-apovincaminate]: 860 nM and 280 nM.
As for `CCOC(=O)C1=CC2(CC)CCCN3CCc4c(n1c1cc(NS(=O)(=O)c5c(F)c(F)c(F)c(F)c5F)ccc41)C32` (stereo not shown) [Compound 23, Ethyl 11-(2,3,4,5,6-pentafluorophenyl)sulfonylamino-apovincaminate], the EC50 in data set [3] (setting [5]) stood at 1200 nM. The IC50 in the data set with washed platelets (setting [6]) came to 580 nM.
Take `CCOC(=O)C1=CC2(CC)CCCN3CCc4c(n1c1cc(NS(=O)(=O)c5cccc([N+](=O)[O-])c5)ccc41)C32` (stereo not shown) [Compound 24, Ethyl 11-(3-nitrophenyl)sulfonylamno-apovincaminate]: the EC50 in data set [3] (Oryctolagus cuniculus) amounted to 200 nM. In addition, in the data set on washed platelets, the IC50 came to 900 nM.
In turn, `CCOC(=O)C1=CC2(CC)CCCN3CCc4c(n1c1ccccc41)C32` (stereo not shown) [Vinpocetine phosphate, vinpocetine phosphate, reference compound] registered an LD50 in data set [2] of 60 mg/kg.
